Data taken from PMC5228125 (Scientific Reports, 2017).

Molecular target: SARS-CoV PLpro (Severe acute respiratory syndrome coronavirus, UniProt P0C6X7)
Type: cell-based

SMILES: CC(=O)Nc1cccc(CNC(=O)C2CCN([C@H](C)c3cccc4ccccc34)CC2)c1 [compound 3e]
- Effect on SARS-CoV PLpro activity in the biosensor assay: blocks
